Reference: paper PMC4877006, “From Binding-Induced Dynamic Effects in SH3 Structures to Evolutionary Conserved Sectors” (PLoS Computational Biology, 2016)

Legend:
Design in all cases: species or system chicken
c-Src L32V (SH3 domain) = biological target: T1, c-Src L32V (SH3 domain) (Gallus gallus, UniProt P00523, L100V/Q128R); experiment: Fluorescence titration binding of peptide RLP2 to c-Src SH3 L32V; conditions: fluorescence titration only, 25 °C
T1 construct: The plasmid pET15b containing the chicken c-Src-SH3 domain gene; made in house
Source text: (§1) The plasmid pET15b containing the chicken c-Src-SH3 domain gene was a generous gift from Dr. E. Freire (Johns Hopkins University). The genes encoding for the c-Src-SH3 mutants were obtained by site directed mutagenesis using the QuickChange Site-Directed-Mutagenesis Kit (Stratagene) taking the WT c-Src-SH3 plasmid as template or purchased from Top Gene Technologies, Canada. WT and mutants of c-Src-SH3 domain were expressed and purified as previously described for the wild type protein [68]. The peptide RLP2 (Ac-RALPPLPRY-NH2) was bought from Peptide 2.0 (Piscataway, USA) and JPT (Berlin, Germany) with a purity > 95%. Protein concentration was determined by absorbance at 280 nm using an extinction coefficient of 16500 M^-1·cm^-1. Peptide concentration was determined by absorbance at 274 nm using an extinction coefficient of 1400 M^-1·cm^-1.
(§2) Supplementary file pcbi.1004938.s008.doc: S3 Table Analysis of Src SH3 binding affinities through ITC. Thermodynamic binding affinity to peptide RLP2. A * indicates experiment made by fluorescence titration only. (DOC) Click here for additional data file.

c- Src I77V (SH3 domain) = biological target: T2, c- Src I77V (SH3 domain) (Gallus gallus, UniProt P00523, I132V); experiment: ITC binding of peptide RLP2 to c-Src SH3 I77V; conditions: 25 °C
T2 construct: The plasmid pET15b containing the chicken c-Src-SH3 domain gene; made in house
Procedure: (§3) Differential Scanning Calorimetry (DSC) was used to evaluate the effect of the mutation on the conformational equilibrium and stability of the protein. Isothermal Titration Calorimetry (ITC) measured the binding energetics of all mutants to the RLP2 ligand at 25°C. The results for the 15 mutants studied are summarized in Figs 1D, S1 and S2, as well as S3 and S4 Tables.
as §1
(§4) Isothermal titration calorimetry was performed using a high-precision VP titration calorimetric system (Microcal Inc., Northampton, MA) as previously described. […] Titrations were made using a profile of injection volumes from 3 μL to 20 μL to define the titration curve more clearly. The heat produced by the binding reaction between the Src-SH3 domain and the peptide ligand was calculated as the difference between the heat of reaction and the corresponding heat of dilution, as obtained from independent titrations of the peptide ligand into the buffer. The resulting binding isotherms were analyzed by non-linear least-square fittings of the experimental data to a model corresponding to a single set of identical sites, as described before.
as §2

c-Src F18L (SH3 domain) [1] = biological target: T3, c-Src F18L (SH3 domain) (Gallus gallus, UniProt P00523, F86L/Q128R); experiment: ITC binding of peptide RLP2 to c-Src SH3 F18L; conditions: ITC, 25 °C
T3 construct: The plasmid pET15b containing the chicken c-Src-SH3 domain gene; made in house
Procedure: as §3, §1, §4, §2

c-Src F18L (SH3 domain) [2] = experiment: ITC binding of peptide RLP2 to c-Src SH3 F18L; conditions: 25 °C, binding of RLP2, F18L relative to wt
Procedure: as §3, §1, §4, §2

c- Src R73Q (SH3 domain) = biological target: T4, c- Src R73Q (SH3 domain) (Gallus gallus, UniProt P00523); experiment: ITC binding of peptide RLP2 to c-Src SH3 R73Q; conditions: 25 °C
T4 construct: The plasmid pET15b containing the chicken c-Src-SH3 domain gene; made in house
Procedure: as §3, §1, §4, §2

c-Src R73K (SH3 domain) = biological target: T5, c-Src R73K (SH3 domain) (Gallus gallus, UniProt P00523, Q128K); experiment: ITC binding of peptide RLP2 to c-Src SH3 R73K; conditions: 25 °C
T5 construct: The plasmid pET15b containing the chicken c-Src-SH3 domain gene; made in house
Procedure: as §3, §1, §4, §2

c-Src H59R (SH3 domain) = biological target: T6, c-Src H59R (SH3 domain) (Gallus gallus, UniProt P00523, H122R/Q128R); experiment: ITC binding of peptide RLP2 to c-Src SH3 H59R; conditions: 25 °C
T6 construct: The plasmid pET15b containing the chicken c-Src-SH3 domain gene; made in house
Procedure: as §3, §1, §4, §2

c-Src wt (SH3 domain) = biological target: T7, c-Src wt (SH3 domain) (Gallus gallus, UniProt P00523, Q128R); experiment: ITC binding of peptide RLP2 to c-Src SH3 wt; conditions: 25 °C
T7 construct: The plasmid pET15b containing the chicken c-Src-SH3 domain gene; made in house
Procedure: as §3, §1, §4, §2

c-Src L40I (SH3 domain) = biological target: T8, c-Src L40I (SH3 domain) (Gallus gallus, UniProt P00523, L108I); experiment: ITC binding of peptide RLP2 to c-Src SH3 L40I; conditions: 25 °C
T8 construct: The plasmid pET15b containing the chicken c-Src-SH3 domain gene; made in house
Procedure: as §3, §1, §4, §2

[3] = binding of RLP2, I77V relative to wt
[4] = binding of RLP2, R73Q relative to wt
[5] = binding of RLP2, R73K relative to wt
[6] = binding of RLP2, H59R relative to wt
[7] = binding of RLP2, wt = reference
[8] = binding of RLP2, L40I relative to wt

∆Gb (25 ºC) (c-Src L32V (SH3 domain); binding of RLP2, L32V): -4.87 ± 0.06 kcal/mol
Kd (c-Src L32V (SH3 domain); L32V, read-out: Kd (25 ºC)): 269 ± 29 µM
∆∆Gb (25 ºC) (c- Src I77V (SH3 domain); [3]): 0.31 ± 0.03 kcal/mol
∆∆Hb (25 ºC) (c- Src I77V (SH3 domain); [3]): 0.5 ± 0.2 kcal/mol
∆Hb (25 ºC) (c- Src I77V (SH3 domain); ITC, binding of RLP2, I77V): -13.7 ± 0.1 kcal/mol
Kd (c- Src I77V (SH3 domain); ITC, RLP2 about 2 mM titrated into SH3 (50-122 μM), I77V, read-out: Kd (25 ºC)): 15.5 ± 0.3 µM
∆Gb (25 ºC) (c-Src F18L (SH3 domain) [1]; binding of RLP2, F18L): -6.64 ± 0.01 kcal/mol
∆Hb (25 ºC) (c-Src F18L (SH3 domain) [1]; binding of RLP2, F18L): -14.5 ± 0.1 kcal/mol
Kd (c-Src F18L (SH3 domain) [1]; RLP2 about 2 mM titrated into SH3 (50-122 μM), F18L, read-out: Kd (25 ºC)): 13.5 ± 0.3 µM
∆∆Gb (25 ºC) (c-Src F18L (SH3 domain) [2]): -0.01 ± 0.03 kcal/mol
∆∆Hb (25 ºC) (c-Src F18L (SH3 domain) [2]): -0.3 ± 0.2 kcal/mol
∆∆Gb (25 ºC) (c- Src R73Q (SH3 domain); [4]): -0.11 ± 0.04 kcal/mol
∆∆Hb (25 ºC) (c- Src R73Q (SH3 domain); [4]): -0.4 ± 0.2 kcal/mol
∆Gb (25 ºC) (c- Src R73Q (SH3 domain); ITC, binding of RLP2, R73Q): -6.74 ± 0.02 kcal/mol
∆Hb (25 ºC) (c- Src R73Q (SH3 domain); ITC, binding of RLP2, R73Q): -14.6 ± 0.1 kcal/mol
Kd (c- Src R73Q (SH3 domain); ITC, RLP2 about 2 mM titrated into SH3 (50-122 μM), R73Q (control), read-out: Kd (25 ºC)): 11.4 ± 0.3 µM
∆∆Gb (25 ºC) (c-Src R73K (SH3 domain); [5]): -0.12 ± 0.04 kcal/mol
∆∆Hb (25 ºC) (c-Src R73K (SH3 domain); [5]): 0.3 ± 0.2 kcal/mol
∆Gb (25 ºC) (c-Src R73K (SH3 domain); ITC, binding of RLP2, R73K): -6.75 ± 0.02 kcal/mol
∆Hb (25 ºC) (c-Src R73K (SH3 domain); ITC, binding of RLP2, R73K): -13.9 ± 0.1 kcal/mol
Kd (c-Src R73K (SH3 domain); ITC, RLP2 about 2 mM titrated into SH3 (50-122 μM), R73K (control), read-out: Kd (25 ºC)): 11.3 ± 0.4 µM
∆∆Gb (25 ºC) (c-Src H59R (SH3 domain); [6]): -0.13 ± 0.03 kcal/mol
∆∆Hb (25 ºC) (c-Src H59R (SH3 domain); [6]): -0.1 ± 0.3 kcal/mol
∆Gb (25 ºC) (c-Src H59R (SH3 domain); ITC, binding of RLP2, H59R): -6.76 ± 0.01 kcal/mol
∆Hb (25 ºC) (c-Src H59R (SH3 domain); ITC, binding of RLP2, H59R): -14.3 ± 0.2 kcal/mol
Kd (c-Src H59R (SH3 domain); ITC, RLP2 about 2 mM titrated into SH3 (50-122 μM), H59R, read-out: Kd (25 ºC)): 11 ± 0.2 µM
∆∆Gb (25 ºC) (c-Src wt (SH3 domain); [7]): 0 kcal/mol
∆∆Hb (25 ºC) (c-Src wt (SH3 domain); [7]): 0 kcal/mol
∆Gb (25 ºC) (c-Src wt (SH3 domain); ITC, binding of RLP2, wt): -6.63 ± 0.03 kcal/mol
∆Hb (25 ºC) (c-Src wt (SH3 domain); ITC, binding of RLP2, wt): -14.2 ± 0.2 kcal/mol
Kd (c-Src wt (SH3 domain); ITC, RLP2 about 2 mM titrated into SH3 (50-122 μM), single set of identical sites, wt, read-out: Kd (25 ºC)): 13.8 ± 0.6 µM
∆∆Gb (25 ºC) (c-Src L40I (SH3 domain); [8]): 0.24 ± 0.04 kcal/mol
∆∆Hb (25 ºC) (c-Src L40I (SH3 domain); [8]): 0.4 ± 0.4 kcal/mol
∆Gb (25 ºC) (c-Src L40I (SH3 domain); ITC, binding of RLP2, L40I): -6.39 ± 0.02 kcal/mol
∆Hb (25 ºC) (c-Src L40I (SH3 domain); ITC, binding of RLP2, L40I): -13.8 ± 0.3 kcal/mol
Kd (c-Src L40I (SH3 domain); ITC, RLP2 about 2 mM titrated into SH3 (50-122 μM), L40I, read-out: Kd (25 ºC)): 20.6 ± 0.6 µM
Substance: Ac-RALPPLPRY-NH2 [RLP2, Ac-RALPPLPRY-NH2]
